In patent US5061794A, “Cephalosporin derivatives, and antibacterial agents” (priority 1986, dated 1991):
≈ marks a conversion by molar mass, not a printed value. Like-named read-outs stand apart in the source and are kept apart here.

What was measured:
Ps. aeruginosa IF03445 = assay: in vitro antibacterial activity, agar plate dilution method (MIC); type: cell-based, Pseudomonas aeruginosa; settings: Pseudomonas aeruginosa, 10^6 CFU/ml
Summary of the method: (§1)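 MICs (μg/ml) were read after 16 hours at 37°C. Test strains, grown overnight in Mueller Hinton broth, were spotted at 10^6 CFU/ml onto Mueller Hinton agar plates containing the compounds at a range of concentrations.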

Ps. aeruginosa AK 109 = assay: as above; type: cell-based, Pseudomonas aeruginosa; settings: Pseudomonas aeruginosa, AK109, 16 h, 10^6 CFU/ml
Summary of the method: as §1

Ps. aeruginosa AKR17 = assay: as above; type: cell-based, Pseudomonas aeruginosa; settings: Pseudomonas aeruginosa, 16 h; Ps. aeruginosa AKR17; 10^6 CFU/ml; read-out: Minimum Inhibitory Concentration (MIC)
Summary of the method: as §1

A. calcoaceticus No. 4 = assay: as above; type: cell-based, Acinetobacter calcoaceticus; settings: Acinetobacter calcoaceticus, NO.4, 16 h, 10^6 CFU/ml
Summary of the method: as §1

Ps. cepacia 23 = assay: as above; type: cell-based, Pseudomonas cepacia; settings: read-out: Minimum Inhibitory Concentration (MIC)
Summary of the method: as §1

E. coli CSH2 (RK1) = assay: microbe, parasite or virus in culture; type: cell-based; settings: Escherichia coli, 16 h, read-out: Minimum Inhibitory Concentration (MIC), *E. coli CSH2 (RK1), lactamase-producing strain; 10^6 CFU/ml
Summary of the method: as §1

E. coli CSH(RE45) = assay: microbe, parasite or virus in culture; type: cell-based; settings: Escherichia coli, 16 h, read-out: Minimum Inhibitory Concentration (MIC), *E. coli CSH(RE45), lactamase-producing strain; 10^6 CFU/ml
Summary of the method: as §1

E. coli GN5482 = assay: in vitro antibacterial activity, agar plate dilution method (MIC); type: cell-based; settings: Escherichia coli
Summary of the method: as §1

E. cloacae Nek 39 = assay: as above; type: cell-based; settings: Enterobacter cloacae, NEK39, 16 h, 10^6 CFU/ml
Summary of the method: as §1

P. vulgaris HX-19 = assay: as above; type: cell-based; settings: Proteus vulgaris, HX19, 16 h, P. vulgaris HX-19; 10^6 CFU/ml; read-out: Minimum Inhibitory Concentration (MIC)
Summary of the method: as §1

M. morganii GN5407 = assay: as above; type: cell-based; settings: Morganella morganii, GN5407, 16 h, read-out: Minimum Inhibitory Concentration (MIC), *M. morganii GN5407, lactamase-producing strain; 10^6 CFU/ml
Summary of the method: as §1

S. aureus 209P NIHJ-JC1 = assay: as above; type: cell-based; settings: Staphylococcus aureus, 16 h, read-out: Minimum Inhibitory Concentration (MIC)
Summary of the method: as §1

S. marcescens No. 16-2 = assay: as above; type: cell-based; settings: Serratia marcescens, NO.162, 16 h, 10^6 CFU/ml
Summary of the method: as §1

K. pneumoniae PCI-602 = assay: as above; type: cell-based; settings: Klebsiella pneumoniae, PCI602, 16 h, 10^6 CFU/ml
Summary of the method: as §1

S. marcescens IAM 1184 = assay: as above; type: cell-based; settings: Serratia marcescens, IAM1184, 16 h, read-out: Minimum Inhibitory Concentration (MIC)
Summary of the method: as §1

E. coli NIHJ JC2 = assay: as above; type: cell-based; settings: Escherichia coli, NIHJJC2, 16 h, read-out: Minimum Inhibitory Concentration (MIC), E. coli NIHJ JC2, 10^6 CFU/ml, 37° C.
Summary of the method: as §1

K. oxytoca GN10650 = assay: as above; type: cell-based; settings: Klebsiella oxytoca, 10^6 CFU/ml
Summary of the method: as §1

K. pneumoniae No. 42 = assay: as above; type: cell-based; settings: Klebsiella pneumoniae, NO.42, 16 h, read-out: Minimum Inhibitory Concentration (MIC), *K. pneumoniae No. 42, lactamase-producing strain; 10^6 CFU/ml
Summary of the method: as §1

E. cloacae 963 = assay: as above; type: cell-based; settings: Enterobacter cloacae, 963, 16 h, read-out: Minimum Inhibitory Concentration (MIC), E. cloacae 963; 10^6 CFU/ml
Summary of the method: as §1

P. vulgaris No. 33 = assay: as above; type: cell-based; settings: Proteus vulgaris, 10^6 CFU/ml
Summary of the method: as §1

[1] = 16 h, Ps. aeruginosa IF03445, read-out: Minimum Inhibitory Concentration (MIC)
[2] = Ps. aeruginosa AK 109, read-out: Minimum Inhibitory Concentration (MIC)
[3] = A. calcoaceticus No. 4, read-out: Minimum Inhibitory Concentration (MIC)
[4] = read-out: Minimum Inhibitory Concentration (MIC), *E. cloacae Nek 39, lactamase-producing strain
[5] = S. aureus 209P NIHJ-JC1, 10^6 CFU/ml, 37° C., 16 hours
[6] = *S. marcescens No. 16-2, lactamase-producing strain, read-out: Minimum Inhibitory Concentration (MIC)
[7] = K. pneumoniae PCI-602, read-out: Minimum Inhibitory Concentration (MIC)
[8] = NO.33, 16 h, read-out: Minimum Inhibitory Concentration (MIC), *P. vulgaris No. 33, lactamase-producing strain
[9] = read-out: Minimum Inhibitory Concentration (MIC), A. calcoaceticus No. 4
[10] = read-out: Minimum Inhibitory Concentration (MIC), K. pneumoniae PCI-602
[11] = GN10650, 16 h, read-out: Minimum Inhibitory Concentration (MIC), *K. oxytoca GN10650, lactamase-producing strain
[12] = GN5482, 16 h, read-out: Minimum Inhibitory Concentration (MIC), *E. coli GN5482, lactamase-producing strain, 10^6 CFU/ml

Row | Compound | MIC (Ps. aeruginosa IF03445; [1]) | MIC (Ps. aeruginosa AK 109; [2]) | MIC (Ps. aeruginosa AKR17) | MIC (A. calcoaceticus No. 4; [3]) | MIC (Ps. cepacia 23; Burkholderia cepacia, 23, 16 h) | MIC (E. coli CSH2 (RK1)) | MIC (E. coli CSH(RE45)) | MIC (E. cloacae Nek 39; [4]) | MIC (P. vulgaris HX-19) | MIC (M. morganii GN5407) | MIC (S. aureus 209P NIHJ-JC1; [5]) | MIC (S. marcescens No. 16-2; [6]) | MIC (K. pneumoniae PCI-602; [7]) | MIC (S. marcescens IAM 1184) | MIC (E. coli NIHJ JC2) | MIC (K. pneumoniae No. 42) | MIC (E. cloacae 963) | MIC (P. vulgaris No. 33; [8]) | MIC (A. calcoaceticus No. 4; [9]) | MIC (K. oxytoca GN10650; [11]) | also measured
1 | CO/N=C(\C(=O)N[C@@H]1C(=O)N2C(C(=O)O)=C(CSc3nc(-c4ccc(OC(C)=O)cc4)c(CC(=O)O)s3)CS[C@H]12)c1csc(N)n1 [compound 18, disodium 3-[4-(4-acetoxyphenyl)-5-carboxylatemethylthiazol-2-yl]thiomethyl-7δ-[2-(2-aminothiazol-4-yl)-2-methoxyiminoacetamido]-3-cephem-4-carboxylate, reference compound] | 100 µg/mL | > 100 µg/mL | > 100 µg/mL | 100 µg/mL | 12.5 µg/mL | 0.78 µg/mL | 1.56 µg/mL | 12.5 µg/mL | < 0.006 µg/mL | 0.39 µg/mL | 3.12 µg/mL | 100 µg/mL | 0.2 µg/mL | 0.78 µg/mL | 0.78 µg/mL | 0.78 µg/mL | 0.78 µg/mL | 0.1 µg/mL | – | – | MIC (E. coli GN5482; 16 h, *E. coli GN5482, lactamase-producing strain, 10^6 CFU/ml, read-out: Minimum Inhibitory Concentration (MIC)): 3.12 µg/mL; MIC (K. oxytoca GN10650; 16 h, *K. oxytoca GN10650, lactamase-producing strain, read-out: Minimum Inhibitory Concentration (MIC)): 25 µg/mL
2 | CC(C)(O/N=C(\C(=O)N[C@@H]1C(=O)N2C(C(=O)O)=C(CSc3nc(-c4ccc(O)cc4)c(CC(=O)O)s3)CS[C@H]12)c1csc(N)n1)C(=O)O [compound 19, reference compound] | – | – | 25 µg/mL (≈ 34 µM) | – | – | 1.56 µg/mL (≈ 2.12 µM) | 1.56 µg/mL (≈ 2.12 µM) | 6.25 µg/mL (≈ 8.51 µM) | < 0.006 µg/mL | 1.56 µg/mL (≈ 2.12 µM) | 50 µg/mL (≈ 68 µM) | 25 µg/mL (≈ 34 µM) | – | 0.78 µg/mL (≈ 1.06 µM) | 3.12 µg/mL (≈ 4.25 µM) | 1.56 µg/mL (≈ 2.12 µM) | 3.12 µg/mL (≈ 4.25 µM) | 0.05 µg/mL (≈ 0.068 µM) | 6.25 µg/mL (≈ 8.51 µM) | 1.56 µg/mL (≈ 2.12 µM) | MIC (Ps. aeruginosa IF03445; IF03445, 16 h, read-out: Minimum Inhibitory Concentration (MIC), Ps. aeruginosa IF03445): 12.5 µg/mL (≈ 17 µM); MIC (Ps. aeruginosa AK 109; read-out: Minimum Inhibitory Concentration (MIC), Ps. aeruginosa AK 109): 6.25 µg/mL (≈ 8.51 µM); MIC (Ps. cepacia 23; Burkholderia cepacia, 16 h, Ps. cepacia 23, 10^6 CFU/ml): 0.2 µg/mL (≈ 0.272 µM); MIC (E. coli GN5482; GN5482, 16 h, read-out: Minimum Inhibitory Concentration (MIC)): 3.12 µg/mL (≈ 4.25 µM); MIC (K. pneumoniae PCI-602; [10]): 0.39 µg/mL (≈ 0.531 µM)
3 | CC(=O)Oc1ccc(-c2nc(SCC3=C(C(=O)O)N4C(=O)[C@@H](NC(=O)/C(=N\OC(C)(C)C(=O)O)c5csc(N)n5)[C@H]4SC3)sc2CC(=O)O)cc1 [compound 20, trisodium 3-[4-(4-acetoxyphenyl)-5-carboxylatemethylthiazol-2-yl]thiomethyl-7β-[2-(2-aminothiazol-4-yl)-2-(1-carboxylate-1-methylethoxyimino)acetamido]-3-cephem-4-carboxylate, reference compound] | 25 µg/mL | 25 µg/mL | > 100 µg/mL | > 100 µg/mL | 6.25 µg/mL | 3.12 µg/mL | 3.12 µg/mL | – | < 0.006 µg/mL | 3.12 µg/mL | 50 µg/mL | 100 µg/mL | – | 1.56 µg/mL | 3.12 µg/mL | 3.12 µg/mL | 6.25 µg/mL | – | – | 3.12 µg/mL | MIC (E. coli GN5482; [12]): 6.25 µg/mL; MIC (E. cloacae Nek 39; *E. cloacae Nek 39, lactamase-producing strain, read-out: Minimum Inhibitory Concentration (MIC)): 25 µg/mL; MIC (K. pneumoniae PCI-602; [10]): 1.56 µg/mL; MIC (P. vulgaris No. 33; 16 h, *P. vulgaris No. 33, lactamase-producing strain, read-out: Minimum Inhibitory Concentration (MIC)): 0.1 µg/mL
4 | CO/N=C(\C(=O)N[C@@H]1C(=O)N2C(C(=O)O)=C(CSc3ncc(-c4ccccc4)o3)CS[C@H]12)c1csc(N)n1 [compound 21, sodium 7β-[2-(2-aminothiazol-4-yl)-2methoxyiminoacetamido]-3-(5-phenyloxazol-2-yl)thiomethyl-3-cephem-4-carboxylate, reference compound] | 50 µg/mL | 50 µg/mL | > 100 µg/mL | – | 0.78 µg/mL | 0.78 µg/mL | 1.56 µg/mL | 6.25 µg/mL | 0.0125 µg/mL | 1.56 µg/mL | – | – | 0.0125 µg/mL | 0.78 µg/mL | 1.56 µg/mL | 3.12 µg/mL | 3.12 µg/mL | 0.78 µg/mL | 12.5 µg/mL | 12.5 µg/mL | MIC (E. coli GN5482; [12]): 0.78 µg/mL; MIC (S. aureus 209P NIHJ-JC1): 0.39 µg/mL; MIC (S. marcescens No. 16-2; read-out: Minimum Inhibitory Concentration (MIC), *S. marcescens No. 16-2, lactamase-producing strain): 6.25 µg/mL
